IC50 data for five molecules are collected here from patent US20240010684A1, “MASP INHIBITORY COMPOUNDS AND USES THEREOF” (BAYER AKTIENGESELLSCHAFT, priority 2020, published 2024).

Assay [1] has as its target human MASP1 (Homo sapiens (Human), UniProt P48740). Description: Biochemical human MASP1 assay (FRET substrate). The conditions noted are these: Average IC50; recombinant human MASP1; read-out: human MASP1 IC50. An outline of the steps:
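IC50 derived from % inhibition versus compound concentration, with fluorescence increase read at 320/420 nm after 60-120 min at 32 C. Enzyme: HEK293-secreted, His-tagged human MASP1 fragment 297-699 at 20 nM in HEPES pH 8,0 buffer with NaCl, CHAPS, glutathione; substrate ABZ-peptide-Lys(Dnp)-NH2 added as 20 μM solution.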

The test system of assay [2] is Human C3-DEPOSITION SERUM. Description: C3 deposition assay, human serum on mannan-coated plates. The conditions noted are these: Average IC50, read-out: Human C3-DEPOSITION SERUM IC50. In kind it is biochemical. The method, boiled down:
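Plates coated overnight at 4° C with S. cerevisiae mannan (10 μg/mL, pH 9.6), blocked with 1% BSA in TBS 2 h at 37° C; washes in TBS/0.05% Tween 20/5 mM CaCl2. Antibodies diluted in wash buffer with 0.5% BSA. Colorimetric read-out at 450 nm.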

Assay [3] addresses rat MASP2 (Rattus norvegicus (Rat), UniProt Q9JJS8). Description: Biochemical rat MASP2 assay (FRET substrate). The conditions noted are these: Average IC50; recombinant rat MASP2; read-out: rat MASP2 IC50. An excerpt:
The MASP1 or MASP2 expression vectors were transfected into the HEK293 (ATCC No. CRL-1573) cell line using Lipofectamine LTX® Reagent (Thermo-Fischer), as described by the manufacturer. […] The MASP1 and M[…] were purified from the conditioned media by affinity chromatography on Ni-NTA Superflow resin (Qiagen) as described by the manufacturer.

Assay [4] addresses rat MASP1 (Rattus norvegicus (Rat), UniProt Q8CHN8). Description: Biochemical rat MASP1 assay (FRET substrate). The conditions noted are these: Average IC50; recombinant rat MASP1; read-out: rat MASP1 IC50. An excerpt: A truncated cDNA sequence of rat MASP1encoding the fragment corresponding to the amino acids 302-704 with a C-terminal His Tag and N-terminal Ig-kappa secretion signal (SEQ ID No: 4) was subcloned into the mammalian expression vector pcDNA3.1 (Invitrogen).
The MASP1 or MASP2 expression vectors were transfected into the HEK293 (ATCC No. CRL-1573) cell line using Lipofectamine LTX® Reagent (Thermo-Fischer), as described by the manufacturer. The mature form of the recombinant rat MASP1 and MASP2 proteases were secreted into the culture medium. The MASP1 and MASP2 proteins were purified from the conditioned media by affinity chromatography on Ni-NTA Superflow resin (Qiagen) as described by the manufacturer.
4.2 Biochemical Rat MASP1 Assay.
Recombinant rat MASP1 enzyme produced in the HEK 293 cells was diluted in the reaction buffer (50 mM HEPES pH 8,0; 100 mM NaCl; 0,01% CHAPS; 0.5 mM Gluthathione) to the concentration of 4 nM and 25 μl was transferred into each single well of 384-well white microtiter plate (Greiner Bio One 781075). 1 μl of the inhibitor compound solution (dissolved in DMSO, at the corresponding concentration) or pure DMSO as a control was added to the same wells. The enzymatic reaction was initiated by addition of 25 μl of 40 μM solution of the FRET substrate Dabcyl-[…]-Glu(Edans)-NH2; (Dabcyl-4-((4-(dimethylamino)phenyl)azo)benzoic acid; Edans-5-[(2-Aminoethyl) amino]naphthalene-1-sulfonyl; custom synthesis by Jerini Peptide Technologies, Berlin) in the reaction buffer. The microtiter plate was incubated for 60-120 min at the temperature of 32 C. The increase of fluorescence intensity was measured in appropriate fluorescence plate reader (e.g. TECAN Ultra) using excitation wavelength of 340 nm and emission wavelength of 490 nm. IC50 values were calculated from percentage of inhibition of rat […] activity as a function of test compound concentration.

The target of assay [5] is human MASP2 (Homo sapiens (Human), UniProt O00187). Description: Biochemical human MASP2 assay (FRET substrate). The conditions noted are these: Average IC50; recombinant human MASP2; read-out: human MASP2 IC50. An outline of the steps:
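IC50 came from % inhibition across compound concentrations, with fluorescence (ex 340 nm, em 490 nm) read after 60-120 min at 32 C. Substrate was a DABCYL FRET peptide, added as a 60 μM solution, cleaved by HEK293-expressed, Ni-NTA-purified mature recombinant human MASP2.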

*1 amine or outer side, *2 acyl side, *3 side chain or, on linkers, in order; H or OH if unused. Where a SMILES comes first, the peptide text is derived from it. Bridges are numbered along the chain shown (N, C = ends). [ ]: non-standard residue; d: D form. Oic = O=C(O)[C@@H]1C[C@@H]2CCCC[C@@H]2N1; Adipoyl = O=C(CCCCC(=O)[*:2])[*:1]; tBuAla = CC(C)(C)C[C@H](N)C(=O)O; Pen = CC(C)(S)[C@H](N)C(=O)O; Dap = NC[C@H](N)C(=O)O; Ahx = NCCCCCC(=O)O; Sar = CNCC(=O)O

Chain of human MASP1 (P48740 other isoform, or with tags, fused parts or gaps): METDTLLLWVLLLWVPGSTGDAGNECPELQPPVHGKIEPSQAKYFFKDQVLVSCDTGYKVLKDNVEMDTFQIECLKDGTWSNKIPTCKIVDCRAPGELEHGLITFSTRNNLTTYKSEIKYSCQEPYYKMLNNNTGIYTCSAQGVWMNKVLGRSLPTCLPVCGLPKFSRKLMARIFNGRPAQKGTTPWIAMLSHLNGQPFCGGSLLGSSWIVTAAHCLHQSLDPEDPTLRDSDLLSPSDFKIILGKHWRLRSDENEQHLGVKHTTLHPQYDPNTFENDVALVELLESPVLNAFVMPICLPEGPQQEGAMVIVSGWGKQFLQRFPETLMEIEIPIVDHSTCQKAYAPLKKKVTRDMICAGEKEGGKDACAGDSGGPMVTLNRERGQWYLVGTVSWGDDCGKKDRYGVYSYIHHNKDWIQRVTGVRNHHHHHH
Chain of rat MASP1 (Q8CHN8 other isoform, or with tags, fused parts or gaps): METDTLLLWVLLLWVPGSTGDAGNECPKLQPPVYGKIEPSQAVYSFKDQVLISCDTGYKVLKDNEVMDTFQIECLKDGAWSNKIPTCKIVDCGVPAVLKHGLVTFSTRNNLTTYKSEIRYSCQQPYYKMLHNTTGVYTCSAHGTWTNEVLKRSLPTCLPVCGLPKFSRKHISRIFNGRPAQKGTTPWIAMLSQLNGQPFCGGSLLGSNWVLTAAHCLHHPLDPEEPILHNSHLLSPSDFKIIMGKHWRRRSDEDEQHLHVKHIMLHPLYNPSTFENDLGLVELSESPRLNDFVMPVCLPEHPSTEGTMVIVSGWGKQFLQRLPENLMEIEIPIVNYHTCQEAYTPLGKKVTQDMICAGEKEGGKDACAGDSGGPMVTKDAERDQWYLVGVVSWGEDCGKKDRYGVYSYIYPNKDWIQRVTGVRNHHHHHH
Chain of rat MASP2 (Q9JJS8 other isoform, or with tags, fused parts or gaps): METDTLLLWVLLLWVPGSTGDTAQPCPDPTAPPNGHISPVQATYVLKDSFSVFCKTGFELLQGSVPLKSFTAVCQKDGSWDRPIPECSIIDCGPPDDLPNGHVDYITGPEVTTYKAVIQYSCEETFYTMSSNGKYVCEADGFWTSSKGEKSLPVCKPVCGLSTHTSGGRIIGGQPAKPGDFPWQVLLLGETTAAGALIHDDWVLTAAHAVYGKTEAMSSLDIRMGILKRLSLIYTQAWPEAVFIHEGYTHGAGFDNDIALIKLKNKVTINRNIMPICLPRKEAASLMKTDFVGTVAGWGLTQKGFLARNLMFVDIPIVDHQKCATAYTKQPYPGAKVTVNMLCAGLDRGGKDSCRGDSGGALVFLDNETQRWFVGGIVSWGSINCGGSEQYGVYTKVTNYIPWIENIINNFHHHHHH
Chain of human MASP2 (O00187 other isoform, or with tags, fused parts or gaps): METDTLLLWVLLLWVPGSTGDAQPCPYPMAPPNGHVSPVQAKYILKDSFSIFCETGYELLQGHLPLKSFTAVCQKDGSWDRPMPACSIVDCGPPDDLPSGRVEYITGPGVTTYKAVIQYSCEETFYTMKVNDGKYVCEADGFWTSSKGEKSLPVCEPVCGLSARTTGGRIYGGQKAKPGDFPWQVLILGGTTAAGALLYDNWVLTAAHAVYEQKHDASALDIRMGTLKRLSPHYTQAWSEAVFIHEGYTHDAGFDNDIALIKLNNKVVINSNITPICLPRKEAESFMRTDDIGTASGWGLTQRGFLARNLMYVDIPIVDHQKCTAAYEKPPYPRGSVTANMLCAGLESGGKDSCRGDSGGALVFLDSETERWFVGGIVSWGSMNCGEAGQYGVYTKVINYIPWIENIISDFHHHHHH

The term IC50 denotes the concentration needed to halve the response being measured. As to `CC[C@H](C)[C@@H]1NC(=O)[C@@H]2CCCN2C(=O)[C@@H]2CCCN2C(=O)[C@H](CC(C)(C)C)NC(=O)[C@H](CO)NC(=O)[C@H](CCCNC(=N)N)NC(=O)[C@H](CO)NC(=O)[C@@H]2CSSC(C)(C)[C@H](NC1=O)C(=O)N[C@@H]([C@@H](C)CC)C(=O)N1CCC[C@H]1C(=O)N1CCC[C@H]1C(=O)N[C@@H]([C@@H](C)CC)C(=O)N2` [Example 58, N-{3-[(6S,9S,12S,15S,18R,21S,23aS,28aS,34S,37R,40S,42aS,47aS)-21,34,40-tri[(2S)-butan-2-yl]-6-(2,2-dimethylpropyl)-9,15-bis(hydroxymethyl)-48,48-dimethyl-5,8,11,14,17,20,23,28,33,36,39,42,47-tridecaoxotetratetracontahydro-1H,5H,28H-18,37-(methanodithiomethano)tetrapyrrolo[1,2-a:1′,2′-d:1″,2″-p:1′″,2′″-s][1,4,7,10,13,16,19,22,25,28,31,34,37]tridecaazacyclononatriacontin-12-yl]propyl}guanidine] (cyclo(CSRS[tBuAla]PPI[Pen]IPPI); disulfide 1-9), the IC50 in assay [1] stood at 9 nM; in assay [2], 81.7 nM; in assay [3], 46 nM; in assay [4], 110 nM; in assay [5], 650 nM.
For the molecule `CC[C@H](C)[C@@H]1NC(=O)CCCCC(=O)NC[C@@H](C(N)=O)NC(=O)[C@H](CC(=O)O)NC(=O)[C@@H]2CCCN2C(=O)[C@H]([C@@H](C)CC)NC(=O)[C@H]2NC(=O)[C@H]([C@@H](C)CC)NC(=O)[C@@H]3CCCN3C(=O)[C@@H]3CCCN3C(=O)[C@H](CC(C)(C)C)NC(=O)[C@H](CO)NC(=O)[C@H](CCCNC(=N)N)NC(=O)[C@H](CO)NC(=O)[C@H](CSSC2(C)C)NC1=O` [Example 60] (ICSRS[tBuAla]PPI[Pen]IPD[Dap]-NH2; disulfide 2-10; linker N-14 via Adipoyl), the IC50 turned out to be 58 nM in assay [1]; 20.5 nM in assay [2]; 13 nM in assay [3]; 330 nM in assay [4]; 5.4 nM in assay [5].
Regarding `CC[C@H](C)[C@@H]1NC(=O)CN(C)C(=O)CCCCCNC(=O)[C@H]([C@@H](C)CC)NC(=O)[C@H]2NC(=O)[C@H]([C@@H](C)CC)NC(=O)[C@@H]3CCCN3C(=O)[C@@H]3CCCN3C(=O)[C@H](CC(C)(C)C)NC(=O)[C@H](CO)NC(=O)[C@H](CCCNC(=N)N)NC(=O)[C@H](CO)NC(=O)[C@H](CSSC2(C)C)NC1=O` [Example 64, N-{3-[(5aS,11S,14S,17S,20S,23R,26S,39S,42R,45S,47aS)-26,39,45-tri[(2S)-butan-2-yl]-11-(2,2-dimethylpropyl)-14,20-bis(hydroxymethyl)-30,48,48-trimethyl-5,10,13,16,19,22,25,28,31,38,41,44,47-tridecaoxohexatetracontahydro-5H-23,42-(methanodithiomethano)dipyrrolo[2,1-1:2′,1′-o][1,4,7,10,13,16,19,22,25,28,31,34,37]tridecaazacyclotritetracontin-17-yl]propyl}guanidine] (cyclo([Ahx][Sar]ICSRS[tBuAla]PPI[Pen]I); disulfide 4-12), the IC50 in assay [1] came to 9.4 nM; in assay [2], 17.8 nM; in assay [3], 13 nM; in assay [4], 157 nM; in assay [5], 12 nM.
On the same counts, the results for `CC[C@H](C)[C@@H]1NC(=O)[C@H](CN)NC(=O)[C@H](CN)NC(=O)[C@@H]2CCCN2C(=O)[C@H]([C@@H](C)CC)NC(=O)[C@H]2NC(=O)[C@H]([C@@H](C)CC)NC(=O)[C@@H]3C[C@@H]4CCCC[C@@H]4N3C(=O)[C@@H]3CCCN3C(=O)[C@H](CC(C)C)NC(=O)[C@H](CO)NC(=O)[C@H](CCCNC(=N)N)NC(=O)[C@H](CO)NC(=O)[C@H](CSSC2(C)C)NC1=O` [Example 89] are 5.7 nM, 18.5 nM, 64 nM, 290 nM and 91 nM.
On the same counts, the results for `CC[C@H](C)[C@@H]1NC(=O)CNC(=O)[C@@H](N)CCC(=O)NC[C@@H](C(N)=O)NC(=O)[C@H](CC(=O)O)NC(=O)[C@@H]2CCCN2C(=O)[C@H]([C@@H](C)CC)NC(=O)[C@H]2NC(=O)[C@H]([C@@H](C)CC)NC(=O)[C@@H]3C[C@@H]4CCCC[C@@H]4N3C(=O)[C@@H]3CCCN3C(=O)[C@H](CC(C)C)NC(=O)[C@H](CO)NC(=O)[C@H](CCCNC(=N)N)NC(=O)[C@H](CO)NC(=O)[C@H](CSSC2(C)C)NC1=O` [Example 93] (H-EGICSRSLP[Oic]I[Pen]IPD[Dap]-NH2; lactam 1-16; disulfide 4-12) are 35 nM, 274 nM, 68 nM, 410 nM and 45 nM.
